Results reported in BindingDB's records for doi:10.1016/j.bmcl.2007.08.017 (Johnson & Johnson Pharmaceutical Research and Development, 2007).

Assay: Binding affinity at human histamine H3

In the case of `CSc1ccc(C2CN(C)Cc3cccc(Oc4ccnc(CN5CCCCC5)c4)c32)cc1` (configuration not stated) [2-methyl-4-(4-(methylthio)phenyl)-5-(2-(piperidin-1-ylmethyl)pyridin-4-yloxy)-1,2,3,4-tetrahydroisoquinoline], the Ki is reported as 0.265 µM.

For `CSc1ccc(C2CN(C)Cc3cccc(Oc4cccc(CN5CCCCC5)c4)c32)cc1` (configuration not stated) [2-methyl-4-(4-(methylthio)phenyl)-5-(3-(piperidin-1-ylmethyl)phenoxy)-1,2,3,4-tetrahydroisoquinoline], the Ki was 0.253 µM.

Work on `CSc1ccc(C2CN(C)Cc3cccc(Oc4cncc(CN5CCCCC5)c4)c32)cc1` (configuration not stated) [2-methyl-4-(4-(methylthio)phenyl)-5-(5-(piperidin-1-ylmethyl)pyridin-3-yloxy)-1,2,3,4-tetrahydroisoquinoline] yielded a Ki of 0.511 µM.

`CSc1ccc(C2CN(C)Cc3cc(Oc4ccnc(CN5CCCCC5)c4)ccc32)cc1` (configuration not stated) [2-methyl-4-(4-(methylthio)phenyl)-7-(2-(piperidin-1-ylmethyl)pyridin-4-yloxy)-1,2,3,4-tetrahydroisoquinoline] gave a Ki of 0.323 µM.

In the case of `CSc1ccc(C2CN(C)Cc3cc(Oc4nc(CN5CCOCC5)cs4)ccc32)cc1` (configuration not stated) [2-methyl-4-(4-(methylthio)phenyl)-7-(4-(morpholinomethyl)thiazol-2-yloxy)-1,2,3,4-tetrahydroisoquinoline], the Ki is reported as 0.201 µM.

Work on `CSc1ccc(C2CN(C)Cc3cc(Oc4ccc(CN5CCCCC5)cc4)ccc32)cc1` (configuration not stated) [2-methyl-4-(4-(methylthio)phenyl)-7-(4-(piperidin-1-ylmethyl)phenoxy)-1,2,3,4-tetrahydroisoquinoline] yielded a Ki of 0.0227 µM.

`CSc1ccc(C2CN(C)Cc3cc(Oc4cc(CN5CCCCC5)ccn4)ccc32)cc1` (configuration not stated) [2-methyl-4-(4-(methylthio)phenyl)-7-(4-(piperidin-1-ylmethyl)pyridin-2-yloxy)-1,2,3,4-tetrahydroisoquinoline] showed a Ki of 0.0343 µM.

With `CSc1ccc(C2CN(C)Cc3cc(Oc4nc(CN5CCCCC5)cs4)ccc32)cc1` (configuration not stated) [2-methyl-4-(4-(methylthio)phenyl)-7-(4-(piperidin-1-ylmethyl)thiazol-2-yloxy)-1,2,3,4-tetrahydroisoquinoline] the Ki was 0.0207 µM.

With `CSc1ccc(C2CN(C)Cc3cc(Oc4ccc(CN5CCOCC5)cn4)ccc32)cc1` (configuration not stated) [2-methyl-4-(4-(methylthio)phenyl)-7-(5-(morpholinomethyl)pyridin-2-yloxy)-1,2,3,4-tetrahydroisoquinoline] the Ki was 0.26 µM.

Molecule `CSc1ccc(C2CN(C)Cc3cc(Oc4ccc(CN5CCCCC5)cn4)ccc32)cc1` (configuration not stated) [2-methyl-4-(4-(methylthio)phenyl)-7-(5-(piperidin-1-ylmethyl)pyridin-2-yloxy)-1,2,3,4-tetrahydroisoquinoline] has a Ki of 0.0082 µM.

Work on `CSc1ccc(C2CN(C)Cc3cc(Oc4cncc(CN5CCCCC5)c4)ccc32)cc1` (configuration not stated) [2-methyl-4-(4-(methylthio)phenyl)-7-(5-(piperidin-1-ylmethyl)pyridin-3-yloxy)-1,2,3,4-tetrahydroisoquinoline] yielded a Ki of 0.109 µM.

Work on `CSc1ccc(C2CN(C)Cc3cc(Oc4ncc(CN5CCCCC5)s4)ccc32)cc1` (configuration not stated) [2-methyl-4-(4-(methylthio)phenyl)-7-(5-(piperidin-1-ylmethyl)thiazol-2-yloxy)-1,2,3,4-tetrahydroisoquinoline] yielded a Ki of 0.0207 µM.

With `CSc1ccc(C2CN(C)Cc3cc(Oc4cccc(CN5CCCCC5)n4)ccc32)cc1` (configuration not stated) [2-methyl-4-(4-(methylthio)phenyl)-7-(6-(piperidin-1-ylmethyl)pyridin-2-yloxy)-1,2,3,4-tetrahydroisoquinoline] the Ki was 0.051 µM.

In the case of `CSc1ccc(C2CN(C)Cc3cc(Oc4ccc(CN5CCCCC5)nc4)ccc32)cc1` (configuration not stated) [2-methyl-4-(4-(methylthio)phenyl)-7-(6-(piperidin-1-ylmethyl)pyridin-3-yloxy)-1,2,3,4-tetrahydroisoquinoline], the Ki is reported as 0.0243 µM.

With `COc1ccc(C2CN(C)Cc3cc(OCCCN4CCCCC4)ncc32)cc1` (configuration not stated) [4-(4-methoxyphenyl)-2-methyl-7-(3-(piperidin-1-yl)propoxy)-1,2,3,4-tetrahydro-2,6-naphthyridine] the Ki was 0.012 µM.

With `CSc1ccc(C2CN(C)Cc3cc(Oc4ccc(CN5CCC(F)CC5)cn4)ccc32)cc1` (configuration not stated) [7-(5-((4-fluoropiperidin-1-yl)methyl)pyridin-2-yloxy)-2-methyl-4-(4-(methylthio)phenyl)-1,2,3,4-tetrahydroisoquinoline] the Ki was 0.11 µM.

Molecule `CN(C)CCC(Oc1ccccc1)c1ccc(OCCCN2CCCCC2)cc1` (configuration not stated) [N,N-dimethyl-3-phenoxy-3-(4-(3-(piperidin-1-yl)propoxy)phenyl)propan-1-amine] has a Ki of 0.00072 µM.
